Reference: patent publication US10344060B2 (priority 2013, dated 2019)
Like-named read-outs stand apart in the source and are kept apart here.

Tests used:
[1] = biological target: rNav1.7 (Rattus norvegicus, UniProt O08562); experiment: cell-based; settings: for IC50: PatchXpress, tonic block, rat Nav1.7, read-out: PX rNav1.7 Tonic IC50; for rNav1.7/hNav1.7: ratio of PX tonic IC50, rat Nav1.7 over human Nav1.7
[2] = biological target: mNav1.7 (Mus musculus, UniProt Q62205); experiment: cell-based; settings: for IC50: PatchXpress, tonic block, mouse Nav1.7, read-out: PX mNav1.7 Tonic IC50; for mNav1.7/hNav1.7: ratio of PX tonic IC50, mouse Nav1.7 over human Nav1.7
mNav1.7, sequence (Q62205 whole entry): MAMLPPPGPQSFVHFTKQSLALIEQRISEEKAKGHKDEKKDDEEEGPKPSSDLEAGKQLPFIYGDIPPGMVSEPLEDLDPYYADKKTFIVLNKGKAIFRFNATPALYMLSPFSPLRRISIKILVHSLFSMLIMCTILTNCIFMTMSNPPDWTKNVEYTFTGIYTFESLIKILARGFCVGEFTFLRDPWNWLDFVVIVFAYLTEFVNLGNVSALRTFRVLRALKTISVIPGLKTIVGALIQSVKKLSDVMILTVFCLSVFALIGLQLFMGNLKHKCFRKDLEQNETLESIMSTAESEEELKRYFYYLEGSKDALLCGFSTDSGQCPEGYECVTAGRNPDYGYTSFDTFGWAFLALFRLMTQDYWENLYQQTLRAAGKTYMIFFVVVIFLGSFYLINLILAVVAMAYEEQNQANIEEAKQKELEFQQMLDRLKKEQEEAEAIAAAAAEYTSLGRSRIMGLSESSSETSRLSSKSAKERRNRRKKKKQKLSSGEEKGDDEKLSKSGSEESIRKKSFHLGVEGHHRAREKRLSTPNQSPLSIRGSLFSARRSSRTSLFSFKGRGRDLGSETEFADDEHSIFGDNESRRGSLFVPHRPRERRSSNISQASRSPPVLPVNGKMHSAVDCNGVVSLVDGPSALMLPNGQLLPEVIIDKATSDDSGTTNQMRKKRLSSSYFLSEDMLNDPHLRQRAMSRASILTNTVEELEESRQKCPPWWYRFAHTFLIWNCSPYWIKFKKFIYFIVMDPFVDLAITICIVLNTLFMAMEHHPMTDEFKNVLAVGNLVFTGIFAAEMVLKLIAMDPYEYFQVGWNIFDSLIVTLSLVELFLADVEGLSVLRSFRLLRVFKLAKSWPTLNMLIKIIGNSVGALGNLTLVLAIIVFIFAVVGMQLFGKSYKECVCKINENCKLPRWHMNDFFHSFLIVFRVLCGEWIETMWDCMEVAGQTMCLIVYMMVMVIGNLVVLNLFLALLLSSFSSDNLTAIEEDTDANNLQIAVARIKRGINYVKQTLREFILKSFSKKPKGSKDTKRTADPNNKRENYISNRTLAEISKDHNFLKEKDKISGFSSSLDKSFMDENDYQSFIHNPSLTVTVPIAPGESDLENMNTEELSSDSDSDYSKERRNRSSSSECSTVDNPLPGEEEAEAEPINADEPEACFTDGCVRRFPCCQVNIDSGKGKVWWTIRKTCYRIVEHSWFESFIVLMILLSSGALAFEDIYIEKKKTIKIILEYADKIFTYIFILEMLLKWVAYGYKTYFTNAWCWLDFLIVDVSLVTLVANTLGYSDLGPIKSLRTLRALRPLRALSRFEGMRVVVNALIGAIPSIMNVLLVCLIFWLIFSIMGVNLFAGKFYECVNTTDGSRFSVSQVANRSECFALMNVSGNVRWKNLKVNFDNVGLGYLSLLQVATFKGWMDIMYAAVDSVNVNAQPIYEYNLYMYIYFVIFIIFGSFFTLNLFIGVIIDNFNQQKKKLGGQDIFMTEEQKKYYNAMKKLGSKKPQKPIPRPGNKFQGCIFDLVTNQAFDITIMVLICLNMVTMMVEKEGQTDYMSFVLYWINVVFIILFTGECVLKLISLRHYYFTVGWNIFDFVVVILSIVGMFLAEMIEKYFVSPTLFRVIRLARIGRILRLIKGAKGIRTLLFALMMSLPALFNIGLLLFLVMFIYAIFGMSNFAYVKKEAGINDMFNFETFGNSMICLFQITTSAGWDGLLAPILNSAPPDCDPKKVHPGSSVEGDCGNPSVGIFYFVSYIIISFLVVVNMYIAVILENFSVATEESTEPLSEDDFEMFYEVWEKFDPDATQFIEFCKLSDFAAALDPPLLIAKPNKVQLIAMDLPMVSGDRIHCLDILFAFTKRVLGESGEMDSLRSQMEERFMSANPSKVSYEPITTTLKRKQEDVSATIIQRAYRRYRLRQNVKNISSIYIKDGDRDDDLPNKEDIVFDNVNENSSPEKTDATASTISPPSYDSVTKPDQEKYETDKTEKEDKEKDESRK

[3] = biological target: hNav1.7 (Homo sapiens, UniProt Q15858); experiment: cell-based; format: cell-based; settings: PatchXpress, tonic block, read-out: PX hNav1.7 Tonic IC50
[4] = biological target: hNav1.4 (Homo sapiens, UniProt P35499); experiment: cell-based; format: cell-based; settings: Table 12
[5] = biological target: hNav1.6 (Homo sapiens, UniProt Q9UQD0); experiment: cell-based; format: cell-based; settings: Table 15
[6] = system: TTX-sensitive Nav channels in mouse DRG neuron

rNav1.7, sequence (O08562 whole entry): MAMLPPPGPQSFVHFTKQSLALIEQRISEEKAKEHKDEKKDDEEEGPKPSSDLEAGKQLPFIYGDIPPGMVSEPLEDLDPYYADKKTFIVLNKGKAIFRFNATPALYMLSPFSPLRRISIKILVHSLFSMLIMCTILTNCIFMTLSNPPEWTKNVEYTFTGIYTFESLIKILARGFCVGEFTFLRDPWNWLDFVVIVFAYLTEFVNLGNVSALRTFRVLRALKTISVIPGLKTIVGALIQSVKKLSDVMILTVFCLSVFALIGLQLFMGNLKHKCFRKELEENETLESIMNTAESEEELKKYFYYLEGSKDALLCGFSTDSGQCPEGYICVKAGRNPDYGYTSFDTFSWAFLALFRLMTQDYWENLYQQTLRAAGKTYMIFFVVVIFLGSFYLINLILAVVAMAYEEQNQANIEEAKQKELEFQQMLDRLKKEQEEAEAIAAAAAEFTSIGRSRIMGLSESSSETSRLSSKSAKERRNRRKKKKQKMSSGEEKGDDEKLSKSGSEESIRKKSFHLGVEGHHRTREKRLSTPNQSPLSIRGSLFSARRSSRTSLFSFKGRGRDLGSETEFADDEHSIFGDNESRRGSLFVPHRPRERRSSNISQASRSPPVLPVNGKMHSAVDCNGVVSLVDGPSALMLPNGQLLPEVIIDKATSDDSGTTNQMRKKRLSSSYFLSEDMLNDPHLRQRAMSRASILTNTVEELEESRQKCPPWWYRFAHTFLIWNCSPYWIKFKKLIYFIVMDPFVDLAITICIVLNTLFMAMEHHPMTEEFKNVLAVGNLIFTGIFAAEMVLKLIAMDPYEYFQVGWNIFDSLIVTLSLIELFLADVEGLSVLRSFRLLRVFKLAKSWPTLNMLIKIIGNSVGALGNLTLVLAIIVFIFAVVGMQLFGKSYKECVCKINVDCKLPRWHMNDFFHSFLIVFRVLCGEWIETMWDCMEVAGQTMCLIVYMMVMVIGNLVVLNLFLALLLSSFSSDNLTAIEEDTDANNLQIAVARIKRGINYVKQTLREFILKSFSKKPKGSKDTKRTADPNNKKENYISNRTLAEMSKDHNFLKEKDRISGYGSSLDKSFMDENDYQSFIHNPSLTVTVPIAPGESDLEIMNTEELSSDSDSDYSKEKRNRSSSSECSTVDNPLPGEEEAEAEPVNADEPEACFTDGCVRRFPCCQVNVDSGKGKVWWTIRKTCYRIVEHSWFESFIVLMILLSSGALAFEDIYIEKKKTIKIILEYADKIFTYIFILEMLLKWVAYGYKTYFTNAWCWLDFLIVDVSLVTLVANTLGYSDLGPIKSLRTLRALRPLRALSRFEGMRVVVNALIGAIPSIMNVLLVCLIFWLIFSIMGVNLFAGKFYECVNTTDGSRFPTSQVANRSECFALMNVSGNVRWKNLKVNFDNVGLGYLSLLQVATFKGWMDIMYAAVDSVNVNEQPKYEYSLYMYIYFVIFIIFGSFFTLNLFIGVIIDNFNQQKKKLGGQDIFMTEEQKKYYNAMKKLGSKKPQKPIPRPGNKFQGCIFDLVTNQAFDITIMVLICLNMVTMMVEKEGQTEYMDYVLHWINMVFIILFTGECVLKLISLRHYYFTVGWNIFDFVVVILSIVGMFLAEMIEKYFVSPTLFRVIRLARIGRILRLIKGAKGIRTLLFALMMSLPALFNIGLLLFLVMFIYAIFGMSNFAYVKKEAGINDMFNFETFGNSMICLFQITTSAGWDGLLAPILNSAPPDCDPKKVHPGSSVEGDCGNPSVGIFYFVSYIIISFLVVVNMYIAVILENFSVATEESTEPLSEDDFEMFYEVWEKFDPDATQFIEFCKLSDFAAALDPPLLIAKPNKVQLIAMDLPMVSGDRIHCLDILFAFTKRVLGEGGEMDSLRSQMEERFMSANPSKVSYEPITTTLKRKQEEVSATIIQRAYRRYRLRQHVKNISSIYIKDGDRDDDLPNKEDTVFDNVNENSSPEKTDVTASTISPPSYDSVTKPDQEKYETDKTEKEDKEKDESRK

| Compound | IC50 [1] [nM] | rNav1.7/hNav1.7 [1] | IC50 [2] [nM] | mNav1.7/hNav1.7 [2] | IC50 ([3]; human Nav1.7) [nM] | IC50 ([3]; Table 12) [nM] | IC50 ([4]; PatchXpress, tonic block, read-out: PX hNav1.4 Tonic IC50) [nM] | Nav1.4/Nav1.7 ([4]; ratio of PX tonic IC50 values) | Nav1.6/Nav1.7 ([5]; ratio of PX tonic IC50 values) | IC50 ([5]; read-out: PX hNav1.6 Tonic IC50) [nM] | IC50 [6] [nM] | block of TTX-sensitive Nav current ([6]; 1000 nM, C57 Black 6 mouse DRG neuron) |
| --- | --- | --- | --- | --- | --- | --- | --- | --- | --- | --- | --- | --- |
| C#CC[C@H](NC(=O)[C@@H](N)CCC(=O)O)C(=O)N[C@H]1CSSC[C@@H]2NC(=O)[C@@H]3CSSC[C@@H](C(=O)N[C@@H](CCCNC(=N)N)C(=O)N[C@@H](CCCCN)C(=O)N[C@@H](CCC(=O)O)C(=O)N[C@H](C(N)=O)[C@@H](C)CC)NC(=O)[C@H](Cc4c[nH]c5ccccc45)NC(=O)[C@H](CC(C)C)NC(=O)[C@H](CCCCN)NC(=O)[C@H](CSSC[C@H](NC(=O)[C@H]([C@@H](C)O)NC(=O)[C@H](Cc4c[nH]c5ccccc45)NC(=O)[C@H](CCCC)NC(=O)[C@H](Cc4c[nH]c5ccccc45)NC(=O)[C@H](CCCCN)NC(=O)[C@H](CCC(N)=O)NC1=O)C(=O)N[C@@H](CC(=O)O)C(=O)N[C@@H](CO)C(=O)N[C@@H](CCCCN)C(=O)N[C@@H](CCCNC(=N)N)C(=O)N[C@@H](CCC(=O)O)C(=O)N3)NC(=O)[C@H](CCCNC(=N)N)NC(=O)[C@H](CC(C)C)NC(=O)CNC(=O)[C@H](CCC(=O)O)NC2=O [Glu-[Pra1; Nle6; Glu14, 28]JzTx-V(1-29)] | 3.34 | 5.94 | 16.1 | 28.63 |  |  |  |  |  |  |  |  |
| C#CC[C@H](N)C(=O)N[C@@H](Cc1ccc(O)cc1)C(=O)N[C@H]1CSSC[C@@H]2NC(=O)[C@@H]3CSSC[C@@H](C(=O)N[C@@H](CCCNC(=N)N)C(=O)N[C@@H](CCCCN)C(=O)N[C@@H](CCC(=O)O)C(=O)N[C@H](C(N)=O)[C@@H](C)CC)NC(=O)[C@H](Cc4c[nH]c5ccc(Br)cc45)NC(=O)[C@H](CC(C)C)NC(=O)[C@H](CCCCN)NC(=O)[C@H](CSSC[C@H](NC(=O)[C@H]([C@@H](C)O)NC(=O)[C@H](Cc4c[nH]c5ccccc45)NC(=O)[C@H](CCCC)NC(=O)[C@H](Cc4c[nH]c5ccccc45)NC(=O)[C@H](CCCCN)NC(=O)[C@H](CCC(N)=O)NC1=O)C(=O)N[C@@H](CC(=O)O)C(=O)N[C@@H](CO)C(=O)N[C@@H](CCCCN)C(=O)N[C@@H](CCCNC(=N)N)C(=O)N[C@@H](C)C(=O)N3)NC(=O)[C@H](CCCNC(=N)N)NC(=O)[C@H](CC(C)C)NC(=O)CNC(=O)[C@H](CCC(=O)O)NC2=O [Pra-[Nle6; 5-BrW24; Glu28]JzTx-V(1-29)] | 2.43 | 62.26 | 0.911 | 23.34 |  |  |  |  |  |  |  |  |
| C#CC[C@H](N)C(=O)N[C@@H](Cc1ccc(O)cc1)C(=O)N[C@H]1CSSC[C@@H]2NC(=O)[C@@H]3CSSC[C@@H](C(=O)N[C@@H](CCCNC(=N)N)C(=O)N[C@@H](CCCCN)C(=O)N[C@@H](CCC(=O)O)C(=O)N[C@H](C(N)=O)[C@@H](C)CC)NC(=O)[C@H](Cc4c[nH]c5ccccc45)NC(=O)[C@H](C4CCCCC4)NC(=O)[C@H](CCCCN)NC(=O)[C@H](CSSC[C@H](NC(=O)[C@H]([C@@H](C)O)NC(=O)[C@H](Cc4c[nH]c5ccccc45)NC(=O)[C@H](CCCC)NC(=O)[C@H](Cc4c[nH]c5ccccc45)NC(=O)[C@H](CCCCN)NC(=O)[C@H](CCC(N)=O)NC1=O)C(=O)N[C@@H](CC(=O)O)C(=O)N[C@@H](CO)C(=O)N[C@@H](CCCCN)C(=O)N[C@@H](CCCNC(=N)N)C(=O)N[C@@H](C)C(=O)N3)NC(=O)[C@H](CCCNC(=N)N)NC(=O)[C@H](CC(C)C)NC(=O)CNC(=O)[C@H](CCC(=O)O)NC2=O [Pra-[Nle6; Chg23; Glu28]JzTx-V(1-29)] | 3.27 | 6.68 | 0.884 | 1.81 |  |  |  |  |  |  |  |  |
| C#CC[C@H](N)C(=O)N[C@@H](Cc1ccc(O)cc1)C(=O)N[C@H]1CSSC[C@@H]2NC(=O)[C@@H]3CSSC[C@@H](C(=O)N[C@@H](CCCNC(=N)N)C(=O)N[C@@H](CCCCN)C(=O)N[C@@H](CCC(=O)O)C(=O)N[C@@H](Cc4ccccc4)C(N)=O)NC(=O)[C@H](Cc4c[nH]c5ccccc45)NC(=O)[C@H](CC(C)C)NC(=O)[C@H](CCCCN)NC(=O)[C@H](CSSC[C@H](NC(=O)[C@H]([C@@H](C)O)NC(=O)[C@H](Cc4c[nH]c5ccccc45)NC(=O)[C@H](CCCC)NC(=O)[C@H](Cc4c[nH]c5ccccc45)NC(=O)[C@H](CCCCN)NC(=O)[C@H](CCC(N)=O)NC1=O)C(=O)N[C@@H](CC(=O)O)C(=O)N[C@@H](CO)C(=O)N[C@@H](CCCCN)C(=O)N[C@@H](CCCNC(=N)N)C(=O)N[C@@H](C)C(=O)N3)NC(=O)[C@H](CCCNC(=N)N)NC(=O)[C@H](CC(C)C)NC(=O)CNC(=O)[C@H](CCC(=O)O)NC2=O [Pra-[Nle6; Glu28; Phe29]JzTx-V(1-29)] | 0.296 | 0.76 | 3.45 | 8.90 |  |  |  |  |  |  |  |  |
| C#CC[C@H](N)C(=O)N[C@@H](Cc1ccc(O)cc1)C(=O)N[C@H]1CSSC[C@@H]2NC(=O)[C@@H]3CSSC[C@@H](C(=O)N[C@@H](CCCNC(=N)N)C(=O)N[C@@H](CCCCN)C(=O)N[C@@H](CCC(=O)O)C(=O)N[C@@H](Cc4c[nH]c5ccccc45)C(N)=O)NC(=O)[C@H](Cc4c[nH]c5ccccc45)NC(=O)[C@H](CC(C)C)NC(=O)[C@H](CCCCN)NC(=O)[C@H](CSSC[C@H](NC(=O)[C@H]([C@@H](C)O)NC(=O)[C@H](Cc4c[nH]c5ccccc45)NC(=O)[C@H](CCCC)NC(=O)[C@H](Cc4c[nH]c5ccccc45)NC(=O)[C@H](CCCCN)NC(=O)[C@H](CCC(N)=O)NC1=O)C(=O)N[C@@H](CC(=O)O)C(=O)N[C@@H](CO)C(=O)N[C@@H](CCCCN)C(=O)N[C@@H](CCCNC(=N)N)C(=O)N[C@@H](C)C(=O)N3)NC(=O)[C@H](CCCNC(=N)N)NC(=O)[C@H](CC(C)C)NC(=O)CNC(=O)[C@H](CCC(=O)O)NC2=O [Pra-[Nle6; Glu28; Trp29]JzTx-V(1-29)] | 0.097 | 0.27 | 3.11 | 8.82 | 0.352 |  |  |  |  |  |  |  |
| CC[C@H](C)[C@H](NC(=O)[C@H](CCCCN)NC(=O)[C@H](CCCNC(=N)N)NC(=O)[C@@H]1CSSC[C@@H]2NC(=O)[C@H](C)NC(=O)[C@H](CCCNC(=N)N)NC(=O)[C@H](CCCCN)NC(=O)[C@H](CO)NC(=O)[C@H](CC(=O)O)NC(=O)[C@@H]3CSSC[C@H](NC(=O)[C@H](CCC(=O)O)NC(=O)[C@H](CC(C)C)NC(=O)CNC(=O)[C@H](CCC(=O)O)NC(=O)[C@H](CSSC[C@H](NC(=O)[C@@H](N)Cc4ccc(O)cc4)C(=O)N[C@@H](CCC(N)=O)C(=O)N[C@@H](CCCCN)C(=O)N[C@@H](Cc4c[nH]c5ccccc45)C(=O)N[C@@H](CCSC)C(=O)N[C@@H](Cc4c[nH]c5ccccc45)C(=O)N[C@@H]([C@@H](C)O)C(=O)N3)NC2=O)C(=O)N[C@@H](CCCCN)C(=O)N[C@@H](CC(C)C)C(=O)N[C@@H](Cc2c[nH]c3ccccc23)C(=O)N1)C(=O)N[C@@H](Cc1c[nH]c2ccccc12)C(N)=O [[Glu20, Trp29]JzTx-V] | 1.3 | 0.82 | 5.08 | 3.20 |  |  |  |  |  |  |  |  |
| C#CC[C@@H]1NC(=O)[C@H](CC(=O)O)NC(=O)[C@@H]2CSSC[C@@H]3NC(=O)[C@H](CCCNC(=N)N)NC(=O)[C@H](CC(C)C)NC(=O)CNC(=O)[C@H](CCC(=O)O)NC(=O)[C@H](CSSC[C@H](NC(=O)[C@@H](N)Cc4ccc(O)cc4)C(=O)N[C@@H](CCC(N)=O)C(=O)N[C@@H](CCCCN)C(=O)N[C@@H](Cc4c[nH]c5ccccc45)C(=O)N[C@@H](CCCC)C(=O)N[C@@H](Cc4c[nH]c5ccccc45)C(=O)N[C@@H]([C@@H](C)O)C(=O)N2)NC(=O)[C@H](CSSC[C@@H](C(=O)N[C@@H](CCCNC(=N)N)C(=O)N[C@@H](CCCCN)C(=O)N[C@@H](CCC(=O)O)C(=O)N[C@H](C(N)=O)[C@@H](C)CC)NC(=O)[C@H](Cc2c[nH]c4ccccc24)NC(=O)[C@H](CC(C)C)NC(=O)[C@H](CCCCN)NC3=O)NC(=O)[C@H](C)NC(=O)[C@H](CCCNC(=N)N)NC(=O)[C@H](CCCCN)NC1=O [[Nle6; Pra11; Glu28]JzTx-V(1-29)] | 3.83 | 8.10 | 3.69 | 7.81 | 0.473 |  |  |  |  |  |  |  |
| C#CC[C@H](N)C(=O)N[C@@H](Cc1ccc(O)cc1)C(=O)N[C@H]1CSSC[C@@H]2NC(=O)[C@@H]3CSSC[C@@H](C(=O)N[C@@H](CCCNC(=N)N)C(=O)N[C@@H](CCCCN)C(=O)N[C@@H](CCC(=O)O)C(=O)N[C@H](C(N)=O)[C@@H](C)CC)NC(=O)[C@H](Cc4c[nH]c5ccccc45)NC(=O)[C@H](CC(C)C)NC(=O)[C@H](CCCCN)NC(=O)[C@H](CSSC[C@H](NC(=O)[C@H]([C@@H](C)O)NC(=O)[C@H](Cc4c[nH]c5ccccc45)NC(=O)[C@H](CCCC)NC(=O)[C@H](Cc4c[nH]c5ccccc45)NC(=O)[C@H](CCCCN)NC(=O)[C@H](CCC(N)=O)NC1=O)C(=O)N[C@@H](CC(=O)O)C(=O)N[C@@H](CO)C(=O)N[C@@H](CCCCN)C(=O)N[C@@H](CCCNC(=N)N)C(=O)N[C@@H](CCC(=O)O)C(=O)N3)NC(=O)[C@H](CCCNC(=N)N)NC(=O)[C@H](CC(C)C)NC(=O)CNC(=O)[C@H](CCC(=O)O)NC2=O [compound 717] |  |  |  |  |  | 0.975 | 325 | 333 | 2558 | 2490 | 99.8 | approximately 90% |
